# Laboratory results published in US20060105375A1, “Bioretrosynthetic methods for preparing products and compositions related thereto” (priority 2004, published 2006).
# Read-outs that look alike come from different tables or passages of the source.
# B1: PNP (purine nucleoside phosphorylase) (Escherichia coli K-12) (protein)
# chain: MATPHINAEMGDFADVVLMPGDPLRAKYIAETFLEDAREVNNVRGMLGFTGTYKGRKISVMGHGMGIPSCSIYTKELITDFGVKKIIRVGSCGAVLPHVKLRDVVIGMGACTDSKVNRIRFKDHDFAAIADFDMVRNAVDAAKALGIDARVGNLFSADLFYSPDGEMFDVMEKYGILGVEMEAAGIYGVAAEFGAKALTICTVSDHIRTHEQTTAAERQTTFNDMIKIALESVLLGDKE
# Experiments:
# [1] = system: transformed E. coli BL21(DE3); experiment: Growth of transformed E. coli in minimal medium (M9) with 1,2,4-triazole carboxamide protoxin; type: cell-based; conditions: 200 μM, kanamycin, 96-well plates
# From the text: It is widely appreciated that ribavirin is a broad-spectrum antiviral nucleoside analog. […] This would form the basis of a ready-made survival based bioassay for ribavirin-1-phosphate biosynthesis directed evolution (FIG. 20). In this selection scheme an E. coli library containing variants of the purine salvage enzyme hypoxanthine phosphoribosyltransferase (HPRT) is replicated into M9 media supplemented with 1,2,4-triazole carboxamide 7 “protoxin.” Active enzymes react triazole with endogenous PRPP 8 to form ribavirin monophosphate 5, an IMPDH poison resulting in growth inhibition. Negative controls with synthetically prepared 1,2,4-triazole carboxamide 7 and complementation experiments with guanosine monophosphate confirmed the validity of this method. Subsequently, a library of mutagenized HPRT in E. coli was evaluated. The assay can be improved by adding nutrients to the medium.
# (§1) A small mutant library of ca. 1000 members was replica plated into 96-well plates containing minimal medium (M9), kanamycin and 200 μM synthetically prepared 1,2,4-triazole carboxamide (2), a concentration found to be non-lethal to transformed E. coli BL21(DE3) under these conditions. Plates were grown for 5 days at 37° C. and cell growth was visualized by staining with tetrazolium blue. […] The mutant and wild type HPRT enzymes were expressed as His×6 tagged proteins and purified to homogeneity (FIG. 22B).
# [2] = system: E. coli BL21(DE3) expressing mutant HPRT; experiment: Time course sensitivity determination by triazole dilution assay of HPRT mutant clones; type: cell-based; conditions: growth-impaired HPRT mutant clones, FIG. 22A
# From the text: FIG. 22A is a graph of time course of sensitivity of clones identified by triazole sensitivity screening methodology. FIG. 22B is a SDS-PAGE gel of expression and nickel affinity purification of 8B3 HPRT. Left is cell-free extract and right is purified 8B3.
# It is widely appreciated that ribavirin is a broad-spectrum antiviral nucleoside analog. […] This would form the basis of a ready-made survival based bioassay for ribavirin-1-phosphate biosynthesis directed evolution (FIG. 20). In this selection scheme an E. coli library containing variants of the purine salvage enzyme hypoxanthine phosphoribosyltransferase (HPRT) is replicated into M9 media supplemented with 1,2,4-triazole carboxamide 7 “protoxin.” Active enzymes react triazole with endogenous PRPP 8 to form ribavirin monophosphate 5, an IMPDH poison resulting in growth inhibition. […] Subsequently, a library of mutagenized HPRT in E. coli was evaluated. […]
# as §1, with “conditions.” for “conditions. Plates were grown for 5 days at 37° C. and cell growth was visualized by staining with tetrazolium blue.”
# [3] = molecular target: T1, PNP (purine nucleoside phosphorylase) (Escherichia coli, UniProt P0ABP8); experiment: Phosphorolysis of inosine vs. dideoxyinosine by PNP (basal activity, Lineweaver-Burke plot); type: biochemical, E. coli; conditions: apparent Km values
# T1 sequence (P0ABP8 1-239): B1 chain
# [4] = molecular target: inosine monophosphate dehydrogenase (IMPDH) (Escherichia coli, UniProt P0ADG7); conditions: cited from earlier work
# [5] = substrate: OC[C@H]1O[C@@H](n2cnc3c(O)ncnc32)[C@H](O)[C@@H]1O; experiment: Phosphorolysis of inosine vs. dideoxyinosine by PNP (basal activity, Lineweaver-Burke plot); type: biochemical, E. coli; conditions: other: substrate of PNP; reverse reaction (phosphorolysis, release of hypoxanthine) monitored with colorimetric assay of FIG. 7
# Sequence of inosine monophosphate dehydrogenase (IMPDH) (P0ADG7 whole entry): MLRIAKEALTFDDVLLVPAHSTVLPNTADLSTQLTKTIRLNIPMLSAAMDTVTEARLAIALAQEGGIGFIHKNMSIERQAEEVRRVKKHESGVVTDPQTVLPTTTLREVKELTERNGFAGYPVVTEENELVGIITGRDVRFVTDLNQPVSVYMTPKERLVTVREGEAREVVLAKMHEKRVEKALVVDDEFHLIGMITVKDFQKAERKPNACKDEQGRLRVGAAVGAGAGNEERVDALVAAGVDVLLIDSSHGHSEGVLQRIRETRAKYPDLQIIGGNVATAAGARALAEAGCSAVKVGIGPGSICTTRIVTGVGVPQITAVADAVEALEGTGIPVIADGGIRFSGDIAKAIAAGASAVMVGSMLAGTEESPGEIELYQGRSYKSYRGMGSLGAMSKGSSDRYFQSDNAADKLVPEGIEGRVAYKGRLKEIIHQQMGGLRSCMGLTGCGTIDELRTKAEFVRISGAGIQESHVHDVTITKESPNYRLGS
molecule,measurement,setting,value
"NC(=O)c1nc[nH]n1 [1,2,4-triazole carboxamide]",lethality to transformed E. coli BL21(DE3),[1],non-lethal
same,susceptibility of HPRT mutants to triazole in vivo (versus wild type),[2],> 2 fold
"O=c1[nH]cnc2c1ncn2[C@H]1CC[C@@H](CO)O1 [ddI, dideoxyinosine]",Km of ddI relative to that of inosine,[3],> 100 times
"NC(=O)c1ncn([C@@H]2O[C@H](COP(=O)(O)O)[C@@H](O)[C@H]2O)n1 [ribavirin-1-phosphate 5, ribavirin monophosphate]",inhibition of IMPDH,[4],potent competitive inhibitor
same,inhibition of IMPDH,[4]; listed as Ribavirin monophosphate,competitive inhibitor
B1,Km,[5],56 µM
